Measurements from patent publication US4175123A, “Amino-sugar derivatives, process for their preparation and pharmaceutical composition thereof” (Bayer Aktiengesellschaft, priority 1976, dated 1979).

Assays:
glucosidase [1] = assay: Sucrose feeding test: postprandial blood sugar after oral sucrose + glucosidase inhibitor in fasting rats; assay type: in vivo, rat
Experimental: (§1) The in vivo activity of the compound was tested on some examples using the experimental arrangement described in the following text.
(§2) Oral administration of starch or sucrose causes a rise in the blood sugar in warm-blooded animals, provided that the carbohydrates are enzymatically degraded in the small intestine to monosaccharides. The inhibition of their enzymatic hydrolysis by glucosidase inhibitors causes a reduced rise in the blood sugar.
(§3) In order to detect the action of glucosidase inhibitors, 6 fasting rats receive perorally, 1 g of broiled starch or 2.5 g of sucrose/kg in the form of an aqueous suspension or in the form of an aqueous solution (starch and sucrose control respectively). An equal number of rats receive the glucosidase inhibitor in the dose indicated, together with the same amount of the carbohydrate concerned. An equal volume of physiological sodium chloride solution is administered orally to a further six rats (control). After administration of the carbohydrate concerned±glucosidae inhibitor, the postprandial change in blood sugar is measured, at the times indicated, in blood from the postorbital venous plexus in an auto-analyser according to the method of W. S. Hoffmann [J biol. Chem 120, 51 (1937)].

glucosidase [2] = assay: Starch feeding test: postprandial blood sugar after oral starch + glucosidase inhibitor in fasting rats; assay type: in vivo, rat; settings: for Blood sugar ± standard deviation, 45 minutes: starch control 120 ± 7.9, fasting control 102 ± 6.7; for Blood sugar ± standard deviation, 60 minutes: starch control 118 ± 6.9, fasting control 88 ± 7.4
Experimental: as §1, §2, §3

[3] = 10 mg/kg perorally + 2.5 g sucrose/kg, sucrose control 113 ± 6.5, fasting control 61 ± 13
[4] = 10 mg/kg perorally + 2.5 g sucrose/kg, sucrose control 116 ± 9.2, fasting control 65 ± 3.9
[5] = 10 mg/kg perorally + 2.5 g sucrose/kg, sucrose control 104 ± 12, fasting control 66 ± 6.9
[6] = 10 mg/kg perorally + 2.5 g sucrose/kg, sucrose control 123 ± 8.1, fasting control 76 ± 3.7
[7] = 10 mg/kg perorally + 1 g starch/kg, starch control 146 ± 19, fasting control 82 ± 12
[8] = 10 mg/kg perorally + 1 g starch/kg, starch control 144 ± 8.9, fasting control 72 ± 10
[9] = 10 mg/kg perorally + 1 g starch/kg

Row | SMILES | Blood sugar ± standard deviation, 15 minutes (glucosidase [1]; [3]) [mg/dL] | Blood sugar ± standard deviation, 30 minutes (glucosidase [1]; [4]) [mg/dL] | Blood sugar ± standard deviation, 45 minutes (glucosidase [1]; [5]) [mg/dL] | Blood sugar ± standard deviation, 60 minutes (glucosidase [1]; [6]) [mg/dL] | Blood sugar ± standard deviation, 15 minutes (glucosidase [2]; [7]) [mg/dL] | Blood sugar ± standard deviation, 30 minutes (glucosidase [2]; [8]) [mg/dL] | Blood sugar ± standard deviation, 45 minutes (glucosidase [2]; [9]) [mg/dL] | Blood sugar ± standard deviation, 60 minutes (glucosidase [2]; [9]) [mg/dL] | further results
1 | C[C@H]1O[C@H](O[C@H]2[C@H](O)[C@@H](O)[C@@H](O[C@H]3[C@H](O)[C@@H](O)[C@H](Oc4ccc([N+](=O)[O-])cc4)O[C@@H]3CO)O[C@@H]2CO)[C@H](O)[C@@H](O)[C@@H]1N[C@H]1C=C(CO)[C@@H](O)[C@H](O)[C@H]1O [Compound 1, p-Nitrophenyl-O-{C}-(1→4)-O-α-D-glcp-(1→4)-β-D-glucopyranoside] |  |  |  |  |  |  |  |  | Blood sugar ± standard deviation, 15 minutes (glucosidase [1]; 0.86 mg/kg perorally + 2.5 g sucrose/kg, sucrose control 128 ± 8.0, fasting control 60 ± 4.6): 103 ± 6.4 mg/dL; Blood sugar ± standard deviation, 30 minutes (glucosidase [1]; 0.86 mg/kg perorally + 2.5 g sucrose/kg, sucrose control 133 ± 8.7, fasting control 64 ± 3.7): 110 ± 10 mg/dL; Blood sugar ± standard deviation, 45 minutes (glucosidase [1]; 0.86 mg/kg perorally + 2.5 g sucrose/kg, sucrose control 134 ± 6.1, fasting control 73 ± 7.1): 108 ± 13 mg/dL; Blood sugar ± standard deviation, 60 minutes (glucosidase [1]; 0.86 mg/kg perorally + 2.5 g sucrose/kg, sucrose control 119 ± 10, fasting control 66 ± 4.2): 107 ± 11 mg/dL; Blood sugar ± standard deviation, 15 minutes (glucosidase [2]; 0.86 mg/kg perorally + 1 g starch/kg, starch control 131 ± 7.2, fasting control 60 ± 4.2): 93 ± 6.4 mg/dL; Blood sugar ± standard deviation, 30 minutes (glucosidase [2]; 0.86 mg/kg perorally + 1 g starch/kg, starch control 113 ± 9.2, fasting control 62 ± 3.4): 84 ± 12 mg/dL
2 | C[C@H]1O[C@H](O[C@H]2[C@H](O)[C@@H](O)[C@@H](O[C@H]3[C@H](O)[C@@H](O)[C@H](Oc4ccccc4)O[C@@H]3CO)O[C@@H]2CO)[C@H](O)[C@@H](O)[C@@H]1N[C@H]1C=C(CO)[C@@H](O)[C@H](O)[C@H]1O [Compound 2, Phenyl-O-{C}-(1→4)-O-α-D-glcp-(1→4)-β-D-glucopyranoside] | 79 ± 4.1 | 86 ± 10 | 74 ± 7.2 | 71 ± 15 | 102 ± 10 | 73 ± 9.1 | 100 ± 6.5 | 108 ± 9.3 | 
3 | C[C@H]1O[C@H](O[C@H]2[C@H](O)[C@@H](O)[C@@H](O[C@H]3[C@H](O)[C@@H](O)[C@H](Oc4cccc(O)c4)O[C@@H]3CO)O[C@@H]2CO)[C@H](O)[C@@H](O)[C@@H]1N[C@H]1C=C(CO)[C@@H](O)[C@H](O)[C@H]1O [Compound 3, m-Hydroxyphenyl-O-{C}-(1→4)-O-α-D-glcp-(1→4)-β-D- glucopyranoside] |  |  |  |  |  |  |  |  | Blood sugar ± standard deviation, 15 minutes (glucosidase [1]; 0.92 mg/kg perorally + 2.5 g sucrose/kg, sucrose control 128 ± 8.0, fasting control 60 ± 4.6): 97 ± 10 mg/dL; Blood sugar ± standard deviation, 30 minutes (glucosidase [1]; 0.92 mg/kg perorally + 2.5 g sucrose/kg, sucrose control 133 ± 8.7, fasting control 64 ± 3.7): 108 ± 4.2 mg/dL; Blood sugar ± standard deviation, 45 minutes (glucosidase [1]; 0.92 mg/kg perorally + 2.5 g sucrose/kg, sucrose control 134 ± 6.1, fasting control 73 ± 7.1): 112 ± 15 mg/dL; Blood sugar ± standard deviation, 60 minutes (glucosidase [1]; 0.92 mg/kg perorally + 2.5 g sucrose/kg, sucrose control 119 ± 10, fasting control 66 ± 4.2): 111 + 11 mg/dl; Blood sugar ± standard deviation, 15 minutes (glucosidase [2]; 0.92 mg/kg perorally + 1 g starch/kg, starch control 131 ± 7.2, fasting control 60 ± 4.2): 89 ± 8.0 mg/dL; Blood sugar ± standard deviation, 30 minutes (glucosidase [2]; 0.92 mg/kg perorally + 1 g starch/kg, starch control 113 ± 9.2, fasting control 62 ± 3.4): 97 ± 13 mg/dL
4 | COC(=O)c1cccc(O[C@@H]2O[C@H](CO)[C@@H](O[C@H]3O[C@H](CO)[C@@H](O[C@H]4O[C@H](C)[C@@H](N[C@H]5C=C(CO)[C@@H](O)[C@H](O)[C@H]5O)[C@H](O)[C@H]4O)[C@H](O)[C@H]3O)[C@H](O)[C@H]2O)c1 [Compound 4, m-Carbomethoxyphenyl-O-{C}-(1→4)-O-α-D-glcp-(1→4)-β-D-glucopyranoside] |  |  |  |  |  |  |  |  | Blood sugar ± standard deviation, 15 minutes (glucosidase [1]; 1.56 mg/kg perorally + 2.5 g sucrose/kg, sucrose control 128 ± 8.0, fasting control 60 ± 4.6): 95 ± 7.0 mg/dL; Blood sugar ± standard deviation, 30 minutes (glucosidase [1]; 1.56 mg/kg perorally + 2.5 g sucrose/kg, sucrose control 133 ± 8.7, fasting control 64 ± 3.7): 112 ± 5.5 mg/dL; Blood sugar ± standard deviation, 45 minutes (glucosidase [1]; 1.56 mg/kg perorally + 2.5 g sucrose/kg, sucrose control 134 ± 6.1, fasting control 73 ± 7.1): 104 ± 6.7 mg/dL; Blood sugar ± standard deviation, 60 minutes (glucosidase [1]; 1.56 mg/kg perorally + 2.5 g sucrose/kg, sucrose control 119 ± 10, fasting control 66 ± 4.2): 115 ± 7.0 mg/dL; Blood sugar ± standard deviation, 15 minutes (glucosidase [2]; 1.56 mg/kg perorally + 1 g starch/kg, starch control 131 ± 7.2, fasting control 60 ± 4.2): 99 ± 8.1 mg/dL; Blood sugar ± standard deviation, 30 minutes (glucosidase [2]; 1.56 mg/kg perorally + 1 g starch/kg, starch control 113 ± 9.2, fasting control 62 ± 3.4): 97 ± 10 mg/dL
5 | COC(=O)c1ccc(O[C@@H]2O[C@H](CO)[C@@H](O[C@H]3O[C@H](CO)[C@@H](O[C@H]4O[C@H](C)[C@@H](N[C@H]5C=C(CO)[C@@H](O)[C@H](O)[C@H]5O)[C@H](O)[C@H]4O)[C@H](O)[C@H]3O)[C@H](O)[C@H]2O)cc1 [Compound 6, p-Carbomethoxyphenyl-O-{C}-(1→4)-O-α-D-glcp-(1→5)-β-D-glucopyranoside] |  |  |  |  |  |  |  |  | Blood sugar ± standard deviation, 15 minutes (glucosidase [1]; 0.78 mg/kg perorally + 2.5 g sucrose/kg, sucrose control 128 ± 8.0, fasting control 60 ± 4.6): 96 ± 15 mg/dL; Blood sugar ± standard deviation, 30 minutes (glucosidase [1]; 0.78 mg/kg perorally + 2.5 g sucrose/kg, sucrose control 133 ± 8.7, fasting control 64 ± 3.7): 100 ± 3.4 mg/dL; Blood sugar ± standard deviation, 45 minutes (glucosidase [1]; 0.78 mg/kg perorally + 2.5 g sucrose/kg, sucrose control 134 ± 6.1, fasting control 73 ± 7.1): 106 ± 18 mg/dL; Blood sugar ± standard deviation, 60 minutes (glucosidase [1]; 0.78 mg/kg perorally + 2.5 g sucrose/kg, sucrose control 119 ± 10, fasting control 66 ± 4.2): 117 ± 6.5 mg/dL; Blood sugar ± standard deviation, 15 minutes (glucosidase [2]; 0.78 mg/kg perorally + 1 g starch/kg, starch control 131 ± 7.2, fasting control 60 ± 4.2): 110 ± 6.1 mg/dL; Blood sugar ± standard deviation, 30 minutes (glucosidase [2]; 0.78 mg/kg perorally + 1 g starch/kg, starch control 113 ± 9.2, fasting control 62 ± 3.4): 105 ± 10 mg/dL
6 | C[C@H]1O[C@H](O[C@H]2[C@H](O)[C@@H](O)[C@H](Oc3ccccc3)O[C@@H]2CO)[C@H](O)[C@@H](O)[C@@H]1N[C@H]1C=C(CO)[C@@H](O)[C@H](O)[C@H]1O [Compound 13, Phenyl-O-C-(1→4)-β-D-glucopyranoside] | 79 ± 6.8 | 80 ± 5.4 | 85 ± 16 | 86 ± 2.0 | 70 ± 8.3 | 40 ± 6.8 | 89 ± 9.0 | 100 ± 4.6 | 
7 | CCO[C@@H]1O[C@H](CO)[C@@H](O[C@H]2O[C@H](C)[C@@H](N[C@H]3C=C(CO)[C@@H](O)[C@H](O)[C@H]3O)[C@H](O)[C@H]2O)[C@H](O)[C@H]1O [Compound 15, Ethyl-O-{C}-(1→4)-β-D-glucopyranoside] | 80 ± 6.1 | 83 ± 9.4 | 87 ± 4.8 | 94 ± 13 |  |  |  |  | 
8 | C[C@H]1O[C@H](O[C@H]2[C@H](O)[C@@H](O)[C@H](OCc3ccccc3)O[C@@H]2CO)[C@H](O)[C@@H](O)[C@@H]1N[C@H]1C=C(CO)[C@@H](O)[C@H](O)[C@H]1O [Compound 20, Benzyl-O-{C}-(1→4)-β-D-glucopyranoside] | 83 ± 20 | 85 ± 8.3 | 73 ± 8.5 | 69 ± 9.3 | 87 ± 12 | 83 ± 13 | 99 ± 17 | 111 ± 5.6 | 
9 | C[C@H]1O[C@H](O[C@H]2[C@H](O)[C@@H](O)[C@@H](O[C@@H]([C@H](O)[C@@H](O)CO)[C@H](O)CO)O[C@@H]2CO)[C@H](O)[C@@H](O)[C@@H]1N[C@H]1C=C(CO)[C@@H](O)[C@H](O)[C@H]1O [Compound 22] |  |  |  |  |  |  |  |  | Blood sugar ± standard deviation, 15 minutes (glucosidase [1]; 1.54 mg/kg perorally + 2.5 g sucrose/kg, sucrose control 134 ± 13, fasting control 71 ± 3.7): 80 ± 3.7 mg/dL; Blood sugar ± standard deviation, 30 minutes (glucosidase [1]; 1.54 mg/kg perorally + 2.5 g sucrose/kg, sucrose control 116 ± 20, fasting control 70 ± 5.3): 79 ± 5.2 mg/dL; Blood sugar ± standard deviation, 45 minutes (glucosidase [1]; 1.54 mg/kg perorally + 2.5 g sucrose/kg, sucrose control 125 ± 8.6, fasting control 77 ± 5.5): 86 ± 4.5 mg/dL; Blood sugar ± standard deviation, 60 minutes (glucosidase [1]; 1.54 mg/kg perorally + 2.5 g sucrose/kg, sucrose control 112 ± 15, fasting control 78 ± 7.3): 86 ± 11 mg/dL
